Laboratory results as given in patent US20220348584A1, “PERK INHIBITING INDOLINYL COMPOUNDS” (HiberCell, Inc., priority 2019, published 2022).
Like-named read-outs stand apart in the source and are kept apart here.

Columns and labels:
[1] = target: T1, EIF2AK3 (PERK) catalytic domain (amino acids 536-1116) (Homo sapiens, UniProt Q9NZJ5); experiment: PERK In Vitro Activity Assay (Isolated), TR-FRET kinase assay; type: biochemical; details: isolated PERK enzyme, 1.5 μM ATP
T1 construct: EIF2AK3 (PERK) catalytic domain (amino acids 536-1116); purchased Invitrogen, Carlsbad, Calif
T1 sequence (Q9NZJ5 536-1116): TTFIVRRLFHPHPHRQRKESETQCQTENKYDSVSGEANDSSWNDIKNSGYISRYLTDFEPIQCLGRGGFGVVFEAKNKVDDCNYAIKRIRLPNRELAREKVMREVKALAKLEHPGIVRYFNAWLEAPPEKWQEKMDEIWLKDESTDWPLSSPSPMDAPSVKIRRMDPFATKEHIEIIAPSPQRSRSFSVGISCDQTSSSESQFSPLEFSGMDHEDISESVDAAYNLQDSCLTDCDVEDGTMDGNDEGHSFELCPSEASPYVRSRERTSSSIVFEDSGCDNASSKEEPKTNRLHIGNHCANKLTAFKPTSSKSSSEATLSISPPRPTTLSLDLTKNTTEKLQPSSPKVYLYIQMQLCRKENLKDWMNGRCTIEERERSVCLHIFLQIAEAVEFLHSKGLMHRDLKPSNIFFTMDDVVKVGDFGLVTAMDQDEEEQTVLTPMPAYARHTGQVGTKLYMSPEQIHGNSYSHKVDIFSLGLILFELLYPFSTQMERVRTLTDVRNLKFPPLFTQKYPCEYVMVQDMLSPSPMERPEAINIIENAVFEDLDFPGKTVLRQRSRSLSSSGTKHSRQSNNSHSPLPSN
Protocol: Perform TR-FRET kinase assays in the absence or presence of inhibitors in a reaction buffer consisting of 50 mM HEPES, pH 7.5, 10 mM MgCb, 1.0 mM EGTA, and 0.01% Brij-35, and 100-200 nM GFP-eIF2a substrate. […] Add test compound, initiate the reaction by addition of enzyme, and incubate at room temperature for 45 minutes. Stop the reaction by addition of EDTA to a final concentration of 10 mM, add Terbium-labelled phospho-eIF2a antibody at a final concentration of 2 nM, and incubate for 90 minutes. Monitor the resulting fluorescence in an EnVison® Multilabel reader (PerkinElmer, Waltham, Mass.).

[2] = system: HEK293-EGFP-eIF2a cells; experiment: PERK Cellular Assay (TR-FRET, GFP-eIF2α, tunicamycin-induced ER stress); type: cell-based, human
Protocol: Stable cell lines were created in HEK293 cells using lentiviral particles harboring an expression vector for GFP-eIF2α. Cells were selected using puromycin and enriched using fluorescence activated cell sorting against GFP. HEK293-EGFP-eIF2a cells were plated at 5000 cells/well in 384-well assay plates and incubated overnight at 37° C., 5% CO2. Inhibitor compounds were added to the wells by Echo acoustic dispensing and incubated for 30 minutes at 37° C., 5% CO2 prior to induction of ER stress by addition of tunicamycin to […] for 2 hours. Cells were lysed and TR-FRET was measured in an EnVision plate reader (PerkinElmer). FRET ratio data was normalized to signal from lysates treated with DMSO vehicle control and plotted as percent inhibition against 10-point; 3-fold dilution series of inhibitors. IC50 values were calculated using 4-parameter logistical fitting in XLFit.

[3] = Homo sapiens, 2 h, HEK293-EGFP-eIF2a cells, tunicamycin 2 hours, TR-FRET, read-out: Cellular eIF2α IC50
[4] = HEK293-EGFP-eIF2a cells, tunicamycin 2 hours, TR-FRET, read-out: Cellular eIF2α IC50

Compound: Cc1nc(N)c2c(-c3ccc4c(c3F)CCN4C(=O)C(O)c3ccccc3)cn(C)c2n1 (racemic) [Example 5, 1-(5-(4-amino-2,7-dimethyl-7H-pyrrolo[2,3-d]pyrimidin-5-yl)-4-fluoroindolin-1-yl)-2-hydroxy-2-phenylethanone]
- IC50 ([1]; read-out: Biochemical IC50): 0.026 to 0.05 µM

Compound: Cc1nc(N)c2c(-c3ccc4c(c3F)CCN4C(=O)C(O)c3cccc(F)c3)cn(C)c2n1 (racemic) [Example 9, 1-(5-(4-amino-2,7-dimethyl-7H-pyrrolo[2,3-d]pyrimidin-5-yl)-4-fluoroindolin-1-yl)-2-(3-fluorophenyl)-2-hydroxyethanone]
- IC50 [2, 3]: 0.051 to 0.1 µM

Compound: Cc1nc(N)c2c(-c3ccc4c(c3F)CCN4C(=O)C(O)c3cc(F)cc(F)c3)cn(C)c2n1 (racemic) [Example 10, 1-(5-(4-amino-2,7-dimethyl-7H-pyrrolo[2,3-d]pyrimidin-5-yl)-4-fluoroindolin-1-yl)-2-(3,5-difluorophenyl)-2-hydroxyethanone]
- IC50 ([1]; read-out: Biochemical IC50): 0.001 to 0.025 µM
- IC50 [2, 3]: 0.001 to 0.025 µM

Compound: Cn1cc(-c2ccc3c(c2F)CCN3C(=O)C(O)c2ccccc2)c2c(N)ncnc21 (single isomer, unassigned) [Example 1, 1-(5-(4-amino-7-methyl-7H-pyrrolo[2,3-d]pyrimidin-5-yl)-4-fluoroindolin-1-yl)-2-hydroxy-2-phenylethanone]
- IC50 ([1]; read-out: Biochemical IC50): 0.001 to 0.025 µM
- IC50 [2, 4]: 0.001 to 0.025 µM

Compound: Cn1cc(-c2ccc3c(c2F)CCN3C(=O)C(O)c2ccccc2)c2c(N)ncnc21 (single isomer, unassigned) [Example 2, 1-(5-(4-amino-7-methyl-7H-pyrrolo[2,3-d]pyrimidin-5-yl)-4-fluoroindolin-1-yl)-2-hydroxy-2-phenylethanone]
- IC50 ([1]; read-out: Biochemical IC50): 0.051 to 0.1 µM
- IC50 [2, 4]: 0.101 to 0.25 µM

Compound: Cn1cc(-c2ccc3c(c2F)CCN3C(=O)C(N)c2ccccc2)c2c(N)ncnc21 (single isomer, unassigned) [Example 3, 2-amino-1-(5-(4-amino-7-methyl-7H-pyrrolo[2,3-d]pyrimidin-5-yl)-4-fluoroindolin-1-yl)-2-phenylethanone]
- IC50 ([1]; read-out: Biochemical IC50): 0.051 to 0.1 µM
- IC50 [2, 3]: 0.051 to 0.1 µM

Compound: Cn1cc(-c2ccc3c(c2F)CCN3C(=O)C(N)c2ccccc2)c2c(N)ncnc21 (single isomer, unassigned) [Example 4, 2-amino-1-(5-(4-amino-7-methyl-7H-pyrrolo[2,3-d]pyrimidin-5-yl)-4-fluoroindolin-1-yl)-2-phenylethanone]
- IC50 ([1]; read-out: Biochemical IC50): 0.101 to 0.25 µM
- IC50 [2, 4]: 0.051 to 0.1 µM

Compound: CC(C)NC(=O)c1cc(-c2ccc3c(c2F)CCN3C(=O)C(O)c2cc(F)cc(F)c2)cnc1N (single isomer, unassigned) [Example 6, 2-amino-5-(1-(2-(3,5-difluorophenyl)-2-hydroxyacetyl)-4-fluoroindolin-5-yl)-N-isopropylnicotinamide]
- IC50 ([1]; read-out: Biochemical IC50): 0.101 to 0.25 µM
- IC50 [2, 4]: 0.251 to 0.5 µM

Compound: CC(C)NC(=O)c1cc(-c2ccc3c(c2F)CCN3C(=O)C(O)c2cc(F)cc(F)c2)cnc1N (single isomer, unassigned) [Example 7, 2-amino-5-(1-(2-(3,5-difluorophenyl)-2-hydroxyacetyl)-4-fluoroindolin-5-yl)-N-isopropylnicotinamide]
- IC50 ([1]; read-out: Biochemical IC50): 0.051 to 0.1 µM
- IC50 [2, 4]: 0.101 to 0.25 µM

Compound: Cc1cn2c(C3CC(C)(O)C3)nc(-c3ccc4c(c3F)CCN4C(=O)C(O)c3cccc(F)c3)c2c(N)n1 (single isomer, unassigned) [Example 13, 1-(5-(8-amino-3-(3-hydroxy-3-methylcyclobutyl)-6-methylimidazo[1,5-a]pyrazin-1-yl)-4-fluoroindolin-1-yl)-2-(3-fluorophenyl)-2-hydroxyethanone]
- IC50 ([1]; read-out: Biochemical IC50): 0.026 to 0.05 µM
- IC50 [2, 4]: 0.251 to 0.5 µM

Compound: Cc1cn2c(C3CC(C)(O)C3)nc(-c3ccc4c(c3F)CCN4C(=O)C(O)c3cccc(F)c3)c2c(N)n1 (single isomer, unassigned) [Example 14, 1-(5-(8-amino-3-(3-hydroxy-3-methylcyclobutyl)-6-methylimidazo[1,5-a]pyrazin-1-yl)-4-fluoroindolin-1-yl)-2-(3-fluorophenyl)-2-hydroxyethanone]
- IC50 ([1]; read-out: Biochemical IC50): 0.001 to 0.025 µM
- IC50 [2, 4]: 0.051 to 0.1 µM

Compound: Cc1cccc(C(O)C(=O)N2CCc3c2ccc(-c2nc(C4CC(C)(O)C4)n4cc(C)nc(N)c24)c3F)n1 (single isomer, unassigned) [Example 17, 1-(5-(8-amino-3-(3-hydroxy-3-methylcyclobutyl)-6-methylimidazo[1,5-a]pyrazin-1-yl)-4-fluoroindolin-1-yl)-2-hydroxy-2-(6-methylpyridin-2-yl)ethanone]
- IC50 ([1]; read-out: Biochemical IC50): 0.051 to 0.1 µM
- IC50 [2, 3]: > 5 µM

Compound: Cc1cccc(C(O)C(=O)N2CCc3c2ccc(-c2nc(C4CC(C)(O)C4)n4cc(C)nc(N)c24)c3F)n1 (single isomer, unassigned) [Example 18, 1-(5-(8-amino-3-(3-hydroxy-3-methylcyclobutyl)-6-methylimidazo[1,5-a]pyrazin-1-yl)-4-fluoroindolin-1-yl)-2-hydroxy-2-(6-methylpyridin-2-yl)ethanone]
- IC50 ([1]; read-out: Biochemical IC50): 0.051 to 0.1 µM
- IC50 [2, 4]: 3 to 4 µM

Compound: Cc1nc(N)c2c(-c3ccc4c(c3)CCN4C(=O)C(O)c3cc(F)cc(C(F)(F)F)c3)cn(C)c2n1 (single isomer, unassigned) [Example 19, 1-(5-(4-amino-2,7-dimethyl-7H-pyrrolo[2,3-d]pyrimidin-5-yl)indolin-1-yl)-2-(3-fluoro-5-(trifluoromethyl)phenyl)-2-hydroxyethanone]
- IC50 ([1]; read-out: Biochemical IC50): 0.001 to 0.025 µM
- IC50 [2, 4]: 0.101 to 0.25 µM

Compound: Cc1nc(N)c2c(-c3ccc4c(c3)CCN4C(=O)C(O)c3cc(F)cc(C(F)(F)F)c3)cn(C)c2n1 (single isomer, unassigned) [Example 20, 1-(5-(4-amino-2,7-dimethyl-7H-pyrrolo[2,3-d]pyrimidin-5-yl)indolin-1-yl)-2-(3-fluoro-5-(trifluoromethyl)phenyl)-2-hydroxyethanone]
- IC50 ([1]; read-out: Biochemical IC50): 0.026 to 0.05 µM
- IC50 [2, 4]: 0.026 to 0.05 µM

Compound: Cc1cccc(CC(=O)N2CCc3c2ccc(-c2cn(C)c4nc(C)nc(N)c24)c3F)n1 [Example 21, 1-(5-(4-amino-2,7-dimethyl-7H-pyrrolo[2,3-d]pyrimidin-5-yl)-4-fluoroindolin-1-yl)-2-(6-methylpyridin-2-yl)ethanone]
- IC50 ([1]; read-out: Biochemical IC50): 0.001 to 0.025 µM
- IC50 [2, 3]: 0.026 to 0.05 µM

Compound: Cn1cc(-c2ccc3c(c2F)CCN3C(=O)Cc2cccc(C(F)(F)F)n2)c2c(N)ncnc21 [Example 22, 1-(5-(4-amino-7-methyl-7H-pyrrolo[2,3-d]pyrimidin-5-yl)-4-fluoroindolin-1-yl)-2-(6-(trifluoromethyl)pyridin-2-yl)ethanone]
- IC50 ([1]; Biochemical IC50 (μM)): 0.001 to 0.025 µM
- IC50 ([2]; Homo sapiens, 2 h, read-out: Cellular eIF2α IC50 (μM)): 0.001 to 0.025 µM

Compound: Cc1cccc(CC(=O)N2CCc3c2ccc(-c2nc(C)n4ccnc(N)c24)c3F)n1 [Example 23, 1-(5-(8-amino-3-methylimidazo[1,5-a]pyrazin-1-yl)-4-fluoroindolin-1-yl)-2-(6-methylpyridin-2-yl)ethanone]
- IC50 ([1]; read-out: Biochemical IC50): 0.026 to 0.05 µM
- IC50 [2, 3]: 0.026 to 0.05 µM

Compound: Cc1cccc(CC(=O)N2CCc3c2ccc(-c2nc(C)n4c(C)cnc(N)c24)c3F)n1 [Example 24, 1-(5-(8-amino-3,5-dimethylimidazo[1,5-a]pyrazin-1-yl)-4-fluoroindolin-1-yl)-2-(6-methylpyridin-2-yl)ethanone]
- IC50 ([1]; read-out: Biochemical IC50): 0.051 to 0.1 µM
- IC50 [2, 3]: 0.026 to 0.05 µM

Compound: CCc1cnc(N)c2c(-c3ccc4c(c3F)CCN4C(=O)Cc3cccc(C)n3)nc(C)n12 [Example 25, 1-(5-(8-amino-5-ethyl-3-methylimidazo[1,5-a]pyrazin-1-yl)-4-fluoroindolin-1-yl)-2-(6-methylpyridin-2-yl)ethanone]
- IC50 ([1]; read-out: Biochemical IC50): 0.051 to 0.1 µM
- IC50 [2, 3]: 0.051 to 0.1 µM

Compound: Cc1cccc(CC(=O)N2CCc3c2ccc(-c2nc(C)n4cc(C)nc(N)c24)c3F)n1 [Example 26, 1-(5-(8-amino-3,6-dimethylimidazo[1,5-a]pyrazin-1-yl)-4-fluoroindolin-1-yl)-2-(6-methylpyridin-2-yl)ethanone]
- IC50 ([1]; read-out: Biochemical IC50): 0.101 to 0.25 µM
- IC50 [2, 3]: 0.101 to 0.25 µM
